One experiment has as its system Rel hydrolase (HD). Put plainly: Inhibition of Rel hydrolase activity: decrease of radioactive (p)ppGpp spot on TLC. Format: biochemical. The note with it: radioactive (p)ppGpp incubated with enzyme, with vs without compound. How it is done: (§1) As indicated above, the “Yes/No” in the 5th and 6th columns of TABLES A to F indicates whether there is, or respectively is not an inhibition of the synthetase (ST) and/or hydrolase (HD) activity. […] The action of a candidate compound is evaluated based on its effect on the production of (p)ppGpp. Therefore, in order to assess the potential influence of a candidate compound on synthesis activity, the enzyme was mixed with GDP or GTP and radioactive ATP to produce (p)ppGpp in absence or presence of the candidate compound. Subsequently, the reaction is developed by thin layer chromatography (TLC). In an alternative assay that enables determining the effect of a compound on the hydrolysis activity, radioactive (p)ppGpp is incubated with the enzyme and any decrease of the (p)ppGpp spot on TLC is evaluated when the assay is conducted in presence of the compound and compared to control conditions where no candidate compound is added during incubation.

Another experiment relates to Rel synthetase (ST). The experiment is described as follows: Inhibition of Rel synthetase activity: (p)ppGpp production from GDP or GTP and radioactive ATP, TLC. It is filed as biochemical. The note with it: enzyme with GDP or GTP and radioactive ATP, absence or presence of compound. How it is done:
as §1

Structures are written as SMILES.

Consider `Cc1c(CC(=O)O)c(=O)oc2cc(O)cc(O)c12` [Compound 1], for which the “HD (inhibition of the hydrolase activity)” value with Rel hydrolase (HD) was “Yes”. Moreover, the “ST (inhibition of the synthetase activity)” value in the experiment on Rel synthetase (ST) is recorded as “No”.
The corresponding values for `O=C(O)CNS(=O)(=O)c1ccc2c(c1)NC(=O)CS2` [Compound 3] are “Yes” and “No”.
The corresponding values for `O=C(O)CC(CNC(=O)CCn1nnc2ccccc2c1=O)c1ccc(Cl)cc1` (stereo not shown) [Compound 4] are “Yes” and “No”.
Taken in the same sequence, the figures for `O=[N+]([O-])c1cccc(CN2CCN(S(=O)(=O)c3ccc4ccccc4c3)CC2)c1` [Compound 5] were “Yes” and “No”.
On to `O=C(O)C1Cc2ccccc2CN1C(=O)Cn1nnc2ccccc21` (stereo not shown) [Compound 6], for which, in the experiment on Rel hydrolase (HD), the “HD (inhibition of the hydrolase activity)” value was “Yes”. The “ST (inhibition of the synthetase activity)” value in the experiment on Rel synthetase (ST) is given as “No”.
Take `O=C1CCc2cc(-c3csc(NC(=O)c4cccc([N+](=O)[O-])c4)n3)ccc2N1` [Compound 7]: in the experiment on Rel hydrolase (HD), the “HD (inhibition of the hydrolase activity)” value was “Yes”. Further, the “ST (inhibition of the synthetase activity)” value with Rel synthetase (ST) is listed as “No”.
Taken in the same sequence, the figures for `O=C(COc1ccc2ccccc2c1)N1N=C2/C(=C/c3cccc([N+](=O)[O-])c3)CCCC2C1c1cccc([N+](=O)[O-])c1` (stereo not shown) [Compound 8] were “Yes” and “No”.
Taken in the same sequence, the figures for `O=C(O)C[C@H](NC(=O)COc1ccc2nc3n(c(=O)c2c1)CCC3)C(=O)O` [Compound 9] were “yes” and “no”.
Taken in the same sequence, the figures for `Cc1c(Cc2ccccc2)c(=O)oc2cc(OCC(=O)O)ccc12` [Compound 10] were “No” and “Yes”.
On to `Cc1cc(OCC(=O)O)c2c(C)c(Cc3ccccc3)c(=O)oc2c1` [Compound 11], for which the “HD (inhibition of the hydrolase activity)” value in the experiment with Rel hydrolase (HD) was “No”. For the same compound, the “ST (inhibition of the synthetase activity)” value in the experiment on Rel synthetase (ST) is recorded as “Yes”.
On to `COc1ccc(-c2cc3ccc(OCc4nnn[nH]4)cc3oc2=O)cc1` [Compound 12], for which the “HD (inhibition of the hydrolase activity)” value in the experiment on Rel hydrolase (HD) is recorded as “No”. The “ST (inhibition of the synthetase activity)” value in the experiment on Rel synthetase (ST) was “Yes”.
For the compound `O=c1oc2cc(OCc3nnn[nH]3)ccc2cc1-c1ccccc1` [Compound 13], in the experiment with Rel hydrolase (HD), the “HD (inhibition of the hydrolase activity)” value was “No”. Further, the “ST (inhibition of the synthetase activity)” value in the experiment on Rel synthetase (ST) is “Yes”.
Regarding `O=c1oc2cc(OCc3nnn[nH]3)ccc2cc1-c1ccc(F)cc1` [Compound 14], the “HD (inhibition of the hydrolase activity)” value in the experiment with Rel hydrolase (HD) is given as “No”. In the experiment on Rel synthetase (ST), the “ST (inhibition of the synthetase activity)” value was “Yes”.
`Cc1c(Cc2ccccc2)c(=O)oc2cc(OCc3ccc(C(=O)O)cc3)ccc12` [Compound 15]: in the experiment with Rel hydrolase (HD), the “HD (inhibition of the hydrolase activity)” value is given as “No”. Also, in the experiment with Rel synthetase (ST), the “ST (inhibition of the synthetase activity)” value is reported as “Yes”.
The corresponding values for `CCCCCCc1c(C)c2ccc(OCc3nnn[nH]3)cc2oc1=O` [Compound 16] are “Yes” and “Yes”.
Turning to `Cc1cc(CCc2nnn[nH]2)c2c(C)c(Cc3ccccc3)c(=O)oc2c1` [Compound 17], in the experiment with Rel hydrolase (HD), the “HD (inhibition of the hydrolase activity)” value is “Yes”. Further, the “ST (inhibition of the synthetase activity)” value in the experiment on Rel synthetase (ST) is listed as “Yes”.
Consider `Cc1c(Cc2ccccc2)c(=O)oc2cc(OCc3nnn[nH]3)ccc12` [Compound 18], for which the “HD (inhibition of the hydrolase activity)” value in the experiment with Rel hydrolase (HD) is listed as “Yes”. The “ST (inhibition of the synthetase activity)” value in the experiment on Rel synthetase (ST) was “Yes”.
As to `Cc1c(Cc2ccccc2)c(=O)oc2cc(OCc3nnn[nH]3)c(Cl)cc12` [Compound 19], the “HD (inhibition of the hydrolase activity)” value with Rel hydrolase (HD) is given as “Yes”. In addition, in the experiment with Rel synthetase (ST), the “ST (inhibition of the synthetase activity)” value was “Yes”.
Take `O=c1oc2cc(OCc3nnn[nH]3)ccc2cc1-c1ccc(Cl)cc1` [Compound 20]: in the experiment with Rel hydrolase (HD), the “HD (inhibition of the hydrolase activity)” value was “Yes”. Besides, the “ST (inhibition of the synthetase activity)” value with Rel synthetase (ST) is on record as “Yes”.
Turning to `O=c1oc2cc(OCc3nnn[nH]3)ccc2cc1-c1ccc2ccccc2c1` [Compound 21], the “HD (inhibition of the hydrolase activity)” value in the experiment with Rel hydrolase (HD) is given as “Yes”. Besides, in the experiment with Rel synthetase (ST), the “ST (inhibition of the synthetase activity)” value is reported as “Yes”.
On to `O=C(Nc1nnn[nH]1)c1ccc2c(Br)cccc2c1` [Compound 22], for which, in the experiment with Rel hydrolase (HD), the “HD (inhibition of the hydrolase activity)” value is on record as “Yes”. The “ST (inhibition of the synthetase activity)” value in the experiment on Rel synthetase (ST) is “Yes”.
Take `CC(NC(=O)c1cc([N+](=O)[O-])c[nH]1)c1ccc2ccccc2c1` (stereo not shown) [Compound 23]: the “HD (inhibition of the hydrolase activity)” value in the experiment on Rel hydrolase (HD) was “Yes”. Besides, the “ST (inhibition of the synthetase activity)” value in the experiment on Rel synthetase (ST) is reported as “Yes”.
For the compound `O=C1N/C(=N\N=C\c2cccc3ccccc23)SC1Cc1ccccc1[N+](=O)[O-]` (stereo not shown) [Compound 24], in the experiment on Rel hydrolase (HD), the “HD (inhibition of the hydrolase activity)” value is given as “Yes”. Also, the “ST (inhibition of the synthetase activity)” value with Rel synthetase (ST) is given as “Yes”.
For the compound `O=C(O)CCNS(=O)(=O)c1ccc2[nH]c(=O)[nH]c2c1` [Compound 25], the “HD (inhibition of the hydrolase activity)” value in the experiment on Rel hydrolase (HD) is “Yes”. Further, the “ST (inhibition of the synthetase activity)” value in the experiment on Rel synthetase (ST) is recorded as “No”.
For the compound `CC(Nc1ccc(F)cc1[N+](=O)[O-])c1ccc2[nH]c(=O)[nH]c2c1` (stereo not shown) [Compound 26], in the experiment on Rel hydrolase (HD), the “HD (inhibition of the hydrolase activity)” value is “Yes”. Also, in the experiment with Rel synthetase (ST), the “ST (inhibition of the synthetase activity)” value is on record as “No”.
The corresponding values for `O=C(O)CCS(=O)(=O)c1ccc2[nH]c(=O)oc2c1` [Compound 27] are “Yes” and “No”.
The corresponding values for `Cc1nc2cc(CC(=O)N[C@@H]3COCC[C@@H]3OCC(=O)O)ccc2[nH]1` [Compound 28] are “Yes” and “No”.
In the case of `COc1ccc2[nH]cc(CCNC(=O)c3nccnc3C(=O)O)c2c1` [Compound 29], the “HD (inhibition of the hydrolase activity)” value in the experiment on Rel hydrolase (HD) is reported as “Yes”. Besides, the “ST (inhibition of the synthetase activity)” value in the experiment on Rel synthetase (ST) is “No”.
The corresponding values for `O=C(c1cc(-c2cccc(Cl)c2)[nH]n1)N1CCc2ccc([N+](=O)[O-])cc21` [Compound 30] are “Yes” and “No”.
On to `O=C(O)/C=C/c1cccc(NC2C(=O)Nc3ccccc32)c1` (stereo not shown) [Compound 31], for which, in the experiment with Rel hydrolase (HD), the “HD (inhibition of the hydrolase activity)” value is reported as “Yes”. Further, the “ST (inhibition of the synthetase activity)” value with Rel synthetase (ST) was “No”.
The corresponding values for `O=C(Nc1nnn[nH]1)c1cc(-c2ccc3c(c2)CCO3)[nH]n1` [Compound 32] are “Yes” and “No”.
Regarding `O=C1c2ccccc2C(=O)N1CCCc1nc(-c2cccc([N+](=O)[O-])c2)no1` [Compound 33], the “HD (inhibition of the hydrolase activity)” value in the experiment on Rel hydrolase (HD) is reported as “Yes”. Also, the “ST (inhibition of the synthetase activity)” value with Rel synthetase (ST) is reported as “No”.
The corresponding values for `O=C(O)CCCC(=O)Nc1cc2[nH]c(=O)[nH]c2cc1N1CCCC1` [Compound 35] are “yes” and “no”.
The corresponding values for `O=C(CC(C(=O)O)C1CCCO1)NCCc1ccc2c(c1)OCO2` (stereo not shown) [Compound 36] are “yes” and “no”.
Taken in the same sequence, the figures for `COc1ccc(C=C2C(=O)Nc3ccc(C(=O)O)cc32)cc1` [Compound 37] were “No” and “Yes”.
Take `O=C1Nc2ccccc2/C1=N\c1ccc(O)c([N+](=O)[O-])c1` [Compound 38]: the “HD (inhibition of the hydrolase activity)” value in the experiment with Rel hydrolase (HD) is “No”. Moreover, in the experiment on Rel synthetase (ST), the “ST (inhibition of the synthetase activity)” value was “Yes”.
On to `O=C1Nc2ccccc2/C1=N\c1cccc([N+](=O)[O-])c1` [Compound 39], for which, in the experiment on Rel hydrolase (HD), the “HD (inhibition of the hydrolase activity)” value is given as “No”. Moreover, the “ST (inhibition of the synthetase activity)” value with Rel synthetase (ST) is “Yes”.
The corresponding values for `O=C(O)Cn1cc(/C=C2/C(=O)Nc3ccccc32)c2ccccc21` [Compound 40] are “No” and “Yes”.
As for `O=C1Nc2ccccc2/C1=N/N=C/c1ccc(-c2ccccc2[N+](=O)[O-])o1` [Compound 41], the “HD (inhibition of the hydrolase activity)” value in the experiment with Rel hydrolase (HD) is “Yes”. Also, the “ST (inhibition of the synthetase activity)” value in the experiment on Rel synthetase (ST) is recorded as “Yes”.
`O=C(O)C1CCN(S(=O)(=O)c2ccc3[nH]c(=O)oc3c2)CC1` [Compound 42]: the “HD (inhibition of the hydrolase activity)” value with Rel hydrolase (HD) is listed as “Yes”. Besides, the “ST (inhibition of the synthetase activity)” value in the experiment on Rel synthetase (ST) is “Yes”.
Regarding `O=C(Nc1ccc(-n2cnc3ccccc32)nc1)c1ccc([N+](=O)[O-])o1` [Compound 43], the “HD (inhibition of the hydrolase activity)” value with Rel hydrolase (HD) is reported as “Yes”. The “ST (inhibition of the synthetase activity)” value in the experiment with Rel synthetase (ST) is “Yes”.
Take `O=C(O)CCC(=Cc1ccc(OCC(=O)O)cc1)c1nc2ccccc2s1` [Compound 44]: in the experiment with Rel hydrolase (HD), the “HD (inhibition of the hydrolase activity)” value is listed as “Yes”. In addition, the “ST (inhibition of the synthetase activity)” value in the experiment with Rel synthetase (ST) is on record as “Yes”.
With `O=C1OCc2ccc(-c3ccc(/C=N/Nc4nnn[nH]4)o3)cc21` [Compound 45], the “HD (inhibition of the hydrolase activity)” value in the experiment on Rel hydrolase (HD) is recorded as “Yes”. Besides, the “ST (inhibition of the synthetase activity)” value with Rel synthetase (ST) was “Yes”.
As to `CSCCC(NS(=O)(=O)c1ccc2c3c(cccc13)C(=O)N2)C(=O)O` (stereo not shown) [Compound 47], the “HD (inhibition of the hydrolase activity)” value in the experiment on Rel hydrolase (HD) is on record as “Yes”. Moreover, the “ST (inhibition of the synthetase activity)” value in the experiment with Rel synthetase (ST) is “Yes”.
As to `O=C(O)CNS(=O)(=O)c1ccc2c3c(cccc13)C(=O)N2` [Compound 48], in the experiment with Rel hydrolase (HD), the “HD (inhibition of the hydrolase activity)” value is listed as “Yes”. In the experiment on Rel synthetase (ST), the “ST (inhibition of the synthetase activity)” value is recorded as “Yes”.
For the compound `O=C(O)c1cc(NS(=O)(=O)c2ccc3c4c(cccc24)C(=O)N3)cnc1Cl` [Compound 49], in the experiment on Rel hydrolase (HD), the “HD (inhibition of the hydrolase activity)” value is given as “Yes”. For the same compound, the “ST (inhibition of the synthetase activity)” value in the experiment on Rel synthetase (ST) is on record as “Yes”.
For `O=C1c2cccc3cc([N+](=O)[O-])cc(c23)C(=O)N1O` [Compound 50], the “HD (inhibition of the hydrolase activity)” value in the experiment on Rel hydrolase (HD) was “No”. For the same compound, in the experiment on Rel synthetase (ST), the “ST (inhibition of the synthetase activity)” value was “Yes”.

Values taken from US20230128889A1, “REL/RELA/SPOT SMALL MOLECULES MODULATORS AND SCREENING METHODS” (priority 2020, published 2023).
